According to patent US8410056B2, “Pro-oxidant anti-cancer compounds” (priority 2006, dated 2013):
Entries after “also recorded” stand apart in the source; their conditions may differ. Ends that are not written are not given here.

Key:
[1] = system: MDA-MB-453, MCF-7 and NeuTL breast cancer cells; assay: ATP bioluminescence assay; type: cell-based, human; murine; details: 6 or 24 h; normoxia or hypoxia
Experimental: (§1) Cell culture and treatment. […] Cells were cultured in DMEM with 10% FCS, 100 U/ml penicillin and 100 μg/ml streptomycin at 37° C. in a humidified atmosphere of 5% CO2. Mitochondrial complex I-deficient (Breen and Scheffler 1979; DeFrancesco et al 1976; Scheffler et al 2004) and complex II-deficient cells (Albayrak et al 2003; Oostveen et al 1995) were grown in DMEM with 10% FCS, […] glucose and non-essential amino acids.
(§2) At approximately 70% confluency, cells were treated with up to 50 μM α-TOS (Sigma), up to 100 μM 3-BP (Aldrich) or 30 ng/ml of human recombinant tumor necrosis factor-related apoptosis—inducing ligand (TRAIL) (Weber et al, 2002) under normoxic or hypoxic conditions. For hypoxia, cells overlaid with nitrogen-purged medium were placed in a hypoxic chamber pre-flushed extensively with nitrogen. The hypoxic chamber with cells was then placed in the incubator as required. α-TOS was dissolved in ethanol and used such that the final ethanol concentration in cell culture medium was <0.1% (v/v). Stock solutions of 3-BP were prepared in PBS prior to use.
ATP measurement. MDA-MB-453 and NeuTL cells were seeded at 2×10^5 per ml and MCF-7 cells at 1.2×10^5 per ml into 96-well tissue culture microtitre plates and allowed to recover overnight before use. Cells were incubated for 6 or 24 h with α-TOS or 3-BP under normoxia or hypoxia as described above. ATP levels were then measured using an ATP bioluminescence assay kit HSII (Roche Applied Science) according to the manufacturer's instructions. Briefly, control or treated cells were transferred into black microtitre plates after incubation for 5 min at room temperature with the cell lysis reagent. Luciferase reagent was added and the signal detected immediately using a Fluorostar Optima plate reader (BMG Labtech). Triplicate wells were read for each condition and data evaluated using a standard calibration curve prepared with known concentrations of ATP.

[2] = biological target: T1, complex II/SDH-dependent activity in NeuTL cells (Mus musculus, UniProt Q8K2B3+Q9CQA3+Q9CXV1+Q9CZB0); assay: MTT reduction assay of complex II/SDH activity in whole cells; type: cell-based, murine; details: for inhibition of MTT reduction after MitoQ pre-incubation: cells pre-incubated 1 h with MitoQ; for enzymatic reduction of MTT: within a few hours of treatment
T1 construct: For specifically measuring complex II activity in whole cells; endogenous in cells; host or cells: NeuTL murine breast cancer cells
Experimental: MTT assay. MTT solutions were prepared immediately before use by dissolving 2.5 mg/ml 3-(4,5-dimethyl[…] (MTT) (Sigma) in PBS alone or phenol red-free RPMI medium containing 20 mM succinic acid, pH 7.4. Stock solutions of 3-nitropropionic acid (3NPA) in ethanol, thenoyltrifluoroacetone (TTFA) in DMSO, 3-BP in PBS, α-TOS in DMSO, and MitoQ (Alleva et al, 2003, James et al, 2005) in ethanol were prepared. The drugs were tested on NeuTL cells cultured in exponential growth phase in 96-well microtitre plates using 4-8 replicate wells per dilution assayed. To assess the ability of MitoQ to restore MTT reduction, cells were pre-incubated for 60 min with 2 or 5 μM MitoQ. Final concentrations of ethanol or DMSO in cultures were ≦0.1%. Treated and control cells were allowed to reduce MTT to blue formazan crystals for 2 or 4 h at 37° C. and 5% CO2. After incubation, culture supernatants were removed except for 30 μl, before the formazan crystals were solubilized by addition of 150 μl DMSO, and absorbance values were measured at 570 nm using a Fluorostar Optima plate reader.
To this end, the present inventors investigated whether α-TOS interferes with UbQ binding in complex II. For specifically measuring complex II activity in whole cells, a short-term (1-2 h) assay was used based on the reduction of the tetrazolium salt, MTT (Maehara et al, 1988). […] For this, oxidative respiration of murine NeuTL breast cancer cells was sustained on high levels of succinate (20 mM), thereby promoting the SDH activity of complex II (Maehara et al, 1988). The cells were then assayed within 1-2 h for their ability to enzymatically reduce MTT, which under conditions of high succinate becomes a specific indicator of complex II/SDH-dependent activity (Maehara et al, 1988, Berridge and Tan, 1993).

[3] = system: erbB2 highly positive breast carcinomas; details: α-TOS 10 μmoles i.p. every 3 d; 3-BP 0.2 μmoles daily intratumorally
Experimental: (A) Nude mice were inoculated with MCF-7 cells and, after tumors became established, the animals were treated once every 3 d with 10 μmoles per mouse of α-TOS dissolved in DMSO or with DMSO alone, by intraperitoneal (i.p.) injection. Tumor size was measured using calipers and was correlated to the size of the carcinomas at the onset of the therapy. Four animals were used in each group. The results shown are mean values±S.E. The symbol ‘*’ denotes significant difference (p<0.05). (B) Female FVB/N erbB2 mice with palpable tumors (see General Materials and Methods) received either 10 μmoles α-TOS solubilized in corn oil/4% ethanol (n=11) or the corn oil/4% ethanol alone (control, n=9) by i.p. injection once every 3 d, or 0.2 μmoles 3-BP (n=8) in PBS at the tumor site every day. Tumor size was recorded using calipers. Two independent experiments were conducted. Results are represented as mean values±S.E. The symbol ‘*’ denotes significant difference (p<0.05) in the analysis of variance between the 3-BP and α-TOS curves.
Mouse tumor experiments. Nude mice were inoculated subcutaneously with MCF-7 cells (2×10^6 cells/mouse). After tumors developed (diameter of 3-7 mm), mice were injected intraperitoneally with 10 μmoles α-TOS in DMSO every 3 days. Control mice were injected with an equal volume (100 μl) of DMSO only. Tumor size was estimated by measuring with digital calipers. A colony of transgenic FVB/N2O2 rat c-neu mice carrying the rat HER-2/neu protooncogene driven by the MMTV promoter on the H-2^q FVB/N background (Guy et al, 1992) was established at the Griffith University Animal Facility and maintained under strict inbreeding conditions. The presence of the transgene was routinely confirmed by PCR. Approximately 70% of the female mice developed spontaneous mammary carcinomas with a mean latency time of 10 months. Female transgenic FVB/N2O2 rat c-neu mice bearing progressively growing tumors with a mean diameter of 10±5 mm were randomly assigned to control or treatment groups. Tumor size was measured using digital calipers. […]

MCF-7 cells = assay: Apoptosis, annexin V-FITC method; type: cell-based, human; details: MCF-7 (erbB2-low); 24 h; normoxia or hypoxia
Experimental: as §1, §2
Apoptosis assessment. Apoptosis was quantified using the annexin V-FITC method, which detects phosphatidyl serine externalized in the early phases of apoptosis (Boersma et al, 1996). Briefly, cells were plated at 10^5 per well in 24-well plates and, after an overnight recuperation, treated with α-TOS or 3-BP alone or in combination. Floating and attached cells were harvested, washed with PBS, resuspended in 0.2 ml binding buffer (10 mM Hepes, 140 mM NaCl, 5 mM CaCl2, pH 7.4), incubated for 30 min at 4° C. with 2 μl annexin V-FITC (PharMingen), supplemented with 200 μl of 50 μg/ml propidium iodide (PI; Sigma), and analyzed by flow cytometry (FACScalibur, Becton Dickinson) using channel 1 for annexin V-FITC binding and channel 2 for PI staining. Cell death was quantified as the percentage of cells with increased annexin V binding and PI staining. […]

MDA-MB-453 cells = assay: Apoptosis, annexin V-FITC method; type: cell-based, human; details: for apoptosis: MDA-MB-453 (erbB2-high), normoxia or hypoxia; for apoptosis after Akt1 knock-down: pre-treated with 60 pM Akt1 siRNA for 24 h, then drug 24 h
Experimental: as §1, §2
Apoptosis assessment. Apoptosis was quantified using the annexin V-FITC method, which detects phosphatidyl serine externalized in the early phases of apoptosis (Boersma et al, 1996). Briefly, cells were plated at 10^5 per well in 24-well plates and, after an overnight recuperation, treated with α-TOS or 3-BP alone or in combination. Floating and attached cells were harvested, washed with PBS, resuspended in 0.2 ml binding buffer (10 mM Hepes, 140 mM NaCl, 5 mM CaCl2, pH 7.4), incubated for 30 min at 4° C. with 2 μl annexin V-FITC (PharMingen), supplemented with 200 μl of 50 μg/ml propidium iodide (PI; Sigma), and analyzed by flow cytometry (FACScalibur, Becton Dickinson) using channel 1 for annexin V-FITC binding and channel 2 for PI staining. Cell death was quantified as the percentage of cells with increased annexin V binding and PI staining.
RNA interference (RNAi). Short-interfering RNA (siRNA) oligonucleotides with 3′-dTdT overhangs specific for Akt1 were synthesized by Qiagen. The sequences are as follows: target sequence: […] (SEQ ID NO 2); siRNA duplex sequences: sense—r([…] )dTdT (SEQ ID NO 3), antisense—r([…] )dTdT (SEQ ID NO 4). The transfection of cultured MDA-MB-453 cells with siRNA was performed using OligofectAmine (Invitrogen) and OptiMEM according to the manufacturer's instructions. Briefly, cells were allowed to reach 50% confluency and supplemented with […] siRNA pre-incubated with OligofectAmine and overlayed with OptiMEM. Cells were washed 24 h later with PBS, overlayed with complete DMEM and treated as required after an additional 24 h.
Transfection of MDA-MB-453 cells with siRNAs was performed using OligofectAmine and OptiMEM. Briefly, cells were allowed to reach ˜50% confluency and supplemented with 60 pmol/l siRNA pre-incubated with OligofectAmine and overlayed with OptiMEM. Cells were washed 24 h later with PBS, overlaid with complete DMEM, cultured for an additional 24 h, 48 h and transgene expression confirmed using Western blotting before they were used for further experiments.

B16-F1/nude mice = details: Kogure et al, 2005; cited from earlier work
Jurkat = details: cited from earlier work
A549 = details: cited from earlier work
C1271 = details: Kogure et al, 2004; cited from earlier work
[4] = system: retinoic acid receptors (RARs); details: reporter constructs; cited from earlier work
NB4, HT93 = details: cited from earlier work
[5] = system: Jurkat, HVT11, MCF7, MCF7-C3, U937, Meso-2; details: cited from earlier work
all cells = details: Zhang et al, 2001b; cited from earlier work
[6] = system: breast carcinomas with high erbB2 expression; assay: Breast carcinomas in FVB/N2O2 c-neu mice, ultrasound imaging; type: in vivo
Experimental: FIG. 11. Peptide conjugate LTVSPWY-α-TOS (SEQ ID NO 1) suppresses breast carcinomas. FVB/N2O2 c-neu female mice of >7 months of age with breast carcinomas, as detected by ultrasound imaging (USI), were treated by intraperitoneal injection of the vehicle or 5 μmol per mouse per dose of LTVSPWY-α-TOS (SEQ ID NO 1) solubilised in corn oil/ethanol (100:5, v/v) at times shown. The tumours were visualised and quantified using USI and are expressed relative to their volume at the onset of the treatment (A). […] The volume was […] at the onset of the experiment for both tumors. Data shown are mean values±SD (n=4-6) and the USI images are representative of tumours from each group.
This example describes the targeting of an α-TOS pro-drug to cancer cells over-expressing the receptor tyrosine kinase erbB2. An adduct of α-TOS was linked to the heptapeptide LTVSPWY (SEQ ID NO 1), which peptide is known for targeting cancer cells over-expressing erbB2. […] In fact, there was an unexpected 90% relative reduction in size of treated tumors compared to the untreated control.

T1 sequence (Q8K2B3 43-664): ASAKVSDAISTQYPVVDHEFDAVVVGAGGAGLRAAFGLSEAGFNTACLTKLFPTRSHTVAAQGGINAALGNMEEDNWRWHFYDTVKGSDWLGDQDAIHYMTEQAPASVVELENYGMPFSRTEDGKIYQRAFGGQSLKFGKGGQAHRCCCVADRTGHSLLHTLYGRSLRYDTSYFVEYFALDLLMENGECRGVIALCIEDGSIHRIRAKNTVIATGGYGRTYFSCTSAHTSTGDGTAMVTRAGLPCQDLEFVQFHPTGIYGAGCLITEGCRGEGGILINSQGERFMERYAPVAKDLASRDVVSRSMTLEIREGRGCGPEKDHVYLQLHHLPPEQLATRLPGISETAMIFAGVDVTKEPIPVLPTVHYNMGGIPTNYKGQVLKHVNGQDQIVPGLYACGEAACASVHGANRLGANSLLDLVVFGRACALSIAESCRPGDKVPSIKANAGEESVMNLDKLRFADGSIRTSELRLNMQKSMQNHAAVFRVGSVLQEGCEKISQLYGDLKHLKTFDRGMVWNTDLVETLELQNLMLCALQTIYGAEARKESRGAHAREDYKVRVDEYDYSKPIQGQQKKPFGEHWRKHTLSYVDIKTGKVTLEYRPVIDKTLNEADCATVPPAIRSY
T1 sequence (Q9CQA3 31-282): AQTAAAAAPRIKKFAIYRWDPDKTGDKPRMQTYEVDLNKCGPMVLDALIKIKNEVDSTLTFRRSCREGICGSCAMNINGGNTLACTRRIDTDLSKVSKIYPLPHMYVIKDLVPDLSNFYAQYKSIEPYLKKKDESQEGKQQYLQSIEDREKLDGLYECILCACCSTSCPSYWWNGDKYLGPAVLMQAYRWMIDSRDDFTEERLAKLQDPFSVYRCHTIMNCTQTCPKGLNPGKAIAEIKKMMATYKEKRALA
T1 sequence (Q9CZB0 30-169): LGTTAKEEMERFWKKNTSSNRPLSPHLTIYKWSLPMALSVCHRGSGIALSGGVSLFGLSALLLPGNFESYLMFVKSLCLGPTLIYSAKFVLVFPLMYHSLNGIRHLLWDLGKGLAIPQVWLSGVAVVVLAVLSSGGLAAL
T1 sequence (Q9CXV1 57-159): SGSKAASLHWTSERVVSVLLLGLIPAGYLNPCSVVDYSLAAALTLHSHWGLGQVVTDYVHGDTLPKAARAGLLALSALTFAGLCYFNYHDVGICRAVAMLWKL

With `O=C(O)C(=O)CBr` [Compound 3-BP, 3-bromopyruvate, reference compound] the “cellular ATP levels” value [1] was “more potent inhibitors than α-TOS”, the “complex II-mediated MTT reduction” value ([2]; absence of added succinate, 4 h) was “potent inhibitors of the complex II-mediated MTT reduction” and the “inhibition of MTT reduction after MitoQ pre-incubation” value [2] was “not significantly different”. For the same molecule, the “enzymatic reduction of MTT” value [2] was “significant decreases occurring in the levels of MTT reduction”, the “tumor growth” value [3] was “either growth arrest or partial regression” and the apoptosis (MCF-7 cells) was “more sensitive to killing by 3-BP under hypoxia than normoxia”. For the same molecule, the apoptosis (MDA-MB-453 cells) was “strikingly resistant to killing by 3-BP, even with concentrations as high as 100 μM” and the “apoptosis after Akt1 knock-down” value (MDA-MB-453 cells) was “particularly marked increase in cytotoxic responsiveness; also recorded: sensitizes”.

For `Cc1c(C)c2c(c(C)c1OC(=O)C(=O)O)CCC(C)(CCCC(C)CCCC(C)CCCC(C)C)O2` (centres unmarked) [Compound 10], the “cytotoxicity in mice inoculated with B16-F1 melanoma cells” value (B16-F1/nude mice) is given as “non-selective cytotoxicity”.

In the case of `Cc1c(C)c2c(c(C)c1OC(=O)CC(=O)O)CCC(C)(CCCC(C)CCCC(C)CCCC(C)C)O2` (centres unmarked) [Compound 11], the “cytotoxicity in mice inoculated with B16-F1 melanoma cells” value (B16-F1/nude mice) is listed as “non-selective cytotoxicity”.

For `COc1c(C)c(C)c2c(c1C)CCC(C)(CCCC(C)CCCC(C)CCCC(C)C)O2` (centres unmarked) [Compound 18], the “pro-apoptotic activity” value (Jurkat) is given as “inactive”.

For `CCC(=O)Oc1c(C)c(C)c2c(c1C)CCC(C)(CCCC(C)CCCC(C)CCCC(C)C)O2` (centres unmarked) [Compound 19], the “pro-apoptotic activity” value (A549) is listed as “inactive”.

In the case of `Cc1c(C)c2c(c(C)c1OC(=O)CCCCCC(=O)O)CCC(C)(CCCC(C)CCCC(C)CCCC(C)C)O2` (centres unmarked) [Compound 24], the “pro-apoptotic activity” value (C1271) is listed as “no activity at all”.

For `CCOC(=O)CCC(=O)Oc1c(C)c(C)c2c(c1C)CCC(C)(CCCC(C)CCCC(C)CCCC(C)C)O2` (centres unmarked) [Compound 25], the “pro-apoptotic activity” value (C1271) is listed as “without pro-apoptotic activity”.

In the case of `CC(C=CC1=C(C)CCCC1(C)C)=CC=CC(C)=CC(=O)Oc1c(C)c(C)c2c(c1C)CCC(C)(CCCC(C)CCCC(C)CCCC(C)C)O2` (centres unmarked) [Compound 28], the “agonism at retinoic acid receptors” value [4] is given as “acted as agonists for retinoic acid receptors (RARs)” and the IC50 (NB4, HT93) is given as 100 to 1000 nM.

In the case of `CC(C=CC1=C(C)CCCC1(C)C)=CC=CC(C)=CC(=O)Oc1c(C)c(C)c2c(c1C)CCC(C)(CCCC(C)CCCC(C)CCCC(C)C)O2` (centres unmarked) [Compound 29], the “agonism at retinoic acid receptors” value [4] is given as “acted as agonists for retinoic acid receptors (RARs)”.

In the case of `Cc1cc(OC(=O)CCC(=O)O)c(C)c2c1OC(C)(CCCC(C)CCCC(C)CCCC(C)C)CC2` (centres unmarked) [Compound 32], the “IC50, relative to α-TOS” value [5] is listed as 50% of α-TOS.

In the case of `O=C(CC(=O)C(F)(F)F)c1cccs1` [TTFA, 4,4,4-trifluoro-1-(2-thienyl)-1,3-butanedione], the “inhibition of MTT reduction after MitoQ pre-incubation” value [2] is listed as “significantly overcome by pre-incubation of the cells with MitoQ”, the “enzymatic reduction of MTT” value [2] is listed as “significantly inhibited the enzymatic reduction of MTT” and the toxicity to cells (all cells) is listed as “toxic to all cells”.

For “LTVSPWY-α-TOS: adduct of α-TOS linked to the heptapeptide LTVSPWY (SEQ ID NO 1) (also: α-tocopheryl succinate adduct, attachment site not given here)”, the tumour volume ([6]; day 15, 5 μmol per dose per mouse i.p., representative tumour, volume −40 mm^3 at onset) was 34.8 mm^3 and the “relative reduction in size of treated tumors compared to the untreated control” value ([6]; mouse, in vivo) was 90%.

B1: TRAIL: human recombinant tumor necrosis factor-related apoptosis—inducing ligand (protein, UniProt P50591 1-281, looked up)
Tumor necrosis factor ligand …: MAMMEVQGGPSLGQTCVLIVIFTVLLQSLCVAVTYVYFTNELKQMQDKYSKSGIACFLKEDDSYWDPNDEESMNSPCWQVKWQLRQLVRKMILRTSEETISTVQEKQQNISPLVRERGPQRVAAHITGTRGRSNTLSSPNSKNEKALGRKINSWESSRSGHSFLSNLHLRNGELVIHEKGFYYIYSQTYFRFQEEIKENTKNDKQMVQYIYKYTSYPDPILLMKSARNSCWSKDAEYGLYSIYQGGIFELKENDRIFVSVTNEHLIDMDHEASFFGAFLVG
In the case of B1, the “cellular ATP levels” value [1] is reported as “more potent inhibitors than α-TOS”, the apoptosis (MDA-MB-453 cells) is reported as “much more resistant to apoptosis” and the “apoptosis after Akt1 knock-down” value (MDA-MB-453 cells) is reported as “sensitizes”.
